“And” between values parts separate entries of the source, which are not always exact repeats. Equal values may be shown once. The source made the active and inactive calls. How the calls were made is not given here.
Test system: rodent lifetime carcinogenesis bioassay, tumor incidence TD50
Assay: chronic cancer bioassays in animals – CPDB, compiled studies (AID 1745844)

Structure (SMILES): CC/C(=C(/CC)c1ccc(O)cc1)c1ccc(O)cc1
- TD50 (mouse, strain (C57BL/6 x BALB/c)F1, females, in feed, site: cervix, lesion: squamous-cell carcinoma, dosed 148 weeks, study length 161 weeks): 1.98 mg/kg/day
- carcinogen call (mouse, strain (C57BL/6 x BALB/c)F1, females, in feed, site: mammary gland, lesion: adenocarcinoma, type B, dosed 148 weeks, study length 161 weeks): positive
- TD50 (mouse, strain (C57BL/6 x BALB/c)F1, females, in feed, site: pituitary gland, lesion: adenocarcinoma, dosed 148 weeks, study length 161 weeks): 2.01 mg/kg/day
- TD50 (mouse, strain (C57BL/6 x BALB/c)F1, females, in feed, site: pituitary gland, lesion: adenoma, dosed 148 weeks, study length 161 weeks): 0.0387 mg/kg/day
- TD50 (mouse, strain (C57BL/6 x BALB/c)F1, males, in feed, site: pituitary gland, lesion: adenoma, dosed 150 weeks, study length 169 weeks): 0.0722 mg/kg/day
- TD50 (mouse, strain (C57BL/6 x BALB/c)F1, males, in feed, site: testis, lesion: interstitial-cell tumor, dosed 150 weeks, study length 169 weeks): 0.0408 mg/kg/day
- TD50 (mouse, strain BALB/cStCrlfC3Hf/Nctr, females, in feed, site: cervix, lesion: adenoacanthoma, dosed 132 weeks, study length 133 weeks): 1.28 mg/kg/day
- TD50 (mouse, strain BALB/cStCrlfC3Hf/Nctr, females, in feed, site: cervix, lesion: squamous-cell carcinoma, dosed 132 weeks, study length 133 weeks): 0.311 mg/kg/day
- TD50 (mouse, strain BALB/cStCrlfC3Hf/Nctr, females, in feed, site: mammary gland, lesion: adenoacanthoma, dosed 132 weeks, study length 133 weeks): 1.88 mg/kg/day
- TD50 (mouse, strain BALB/cStCrlfC3Hf/Nctr, females, in feed, site: mammary gland, lesion: adenocarcinoma, type B, dosed 132 weeks, study length 133 weeks): 0.476 mg/kg/day
- TD50 (mouse, strain BALB/cStCrlfC3Hf/Nctr, females, in feed, site: ovary, lesion: granulosa-cell tumor, dosed 132 weeks, study length 133 weeks): 0.166 mg/kg/day
- TD50 (mouse, strain BALB/cStCrlfC3Hf/Nctr, females, in feed, site: pituitary gland, lesion: adenocarcinoma, dosed 132 weeks, study length 133 weeks): 5.1 mg/kg/day
- TD50 (mouse, strain BALB/cStCrlfC3Hf/Nctr, females, in feed, site: pituitary gland, lesion: adenoma, dosed 132 weeks, study length 133 weeks): 0.2 mg/kg/day
- TD50 (mouse, strain BALB/cStCrlfC3Hf/Nctr, females, in feed, site: uterus, lesion: adenocarcinoma, dosed 132 weeks, study length 133 weeks): 5.32 mg/kg/day
- TD50 (mouse, strain BALB/cStCrlfC3Hf/Nctr, females, in feed, site: vagina, lesion: squamous-cell carcinoma, dosed 132 weeks, study length 133 weeks): 1.31 mg/kg/day
- TD50 (mouse, strain BALB/cStCrlfC3Hf/Nctr, males, in feed, site: pituitary gland, lesion: adenoma, dosed 121 weeks, study length 126 weeks): 0.171 mg/kg/day
- TD50 (mouse, strain BALB/cStCrlfC3Hf/Nctr, males, in feed, site: testis, lesion: interstitial-cell tumor, dosed 121 weeks, study length 126 weeks): 0.0215 mg/kg/day
- TD50 (mouse, strain C3H (MTV+), females, in feed, site: mammary gland, lesion: adenocarcinoma, dosed 104 weeks, study length 104 weeks): 0.026 mg/kg/day
- TD50 (mouse, strain C3H (MTV+), females, in feed, site: mammary gland, lesion: carcinoma, dosed 85 weeks, study length 85 weeks): 0.0292 mg/kg/day
- TD50 (mouse, strain C3H/AnCum, males, in feed, site: mammary gland, lesion: carcinoma, dosed 104 weeks, study length 104 weeks): 0.0359 mg/kg/day and 0.0421 mg/kg/day and 0.0789 mg/kg/day
- TD50 (mouse, strain C3H/HeJ (MTV+), females, in feed, site: mammary gland, lesion: adenocarcinoma, dosed 52 weeks, study length 52 weeks): 0.0825 mg/kg/day
- TD50 (mouse, strain C3H/HeJ (MTV+), females, in feed, site: mammary gland, lesion: adenocarcinoma, dosed 104 weeks, study length 104 weeks): 14.2 mg/kg/day
- TD50 (mouse, strain C3H/HeJ (MTV+), females, in feed, site: ovary, lesion: tubular adenoma, dosed 78 weeks, study length 78 weeks): 0.0222 mg/kg/day
- TD50 (mouse, strain C3H/HeN-MTV-/Nctr (MTV-), females, in feed, site: all sites, lesion: mesothelioma, dosed 112 weeks, study length 112 weeks): 0.928 mg/kg/day
- TD50 (mouse, strain C3H/HeN-MTV-/Nctr (MTV-), females, in feed, site: all sites, lesion: mesothelioma, dosed 123 weeks, study length 123 weeks): 0.487 mg/kg/day
- TD50 (mouse, strain C3H/HeN-MTV-/Nctr (MTV-), females, in feed, site: all sites, lesion: mesothelioma, dosed 125 weeks, study length 125 weeks): 0.52 mg/kg/day
- TD50 (mouse, strain C3H/HeN-MTV-/Nctr (MTV-), females, in feed, site: cervix uteri, lesion: adenocarcinoma, dosed 112 weeks, study length 112 weeks): 2.47 mg/kg/day
- TD50 (mouse, strain C3H/HeN-MTV-/Nctr (MTV-), females, in feed, site: cervix uteri, lesion: adenocarcinoma, dosed 123 weeks, study length 123 weeks): 1.66 mg/kg/day
- TD50 (mouse, strain C3H/HeN-MTV-/Nctr (MTV-), females, in feed, site: cervix uteri, lesion: adenocarcinoma, dosed 125 weeks, study length 125 weeks): 1.17 mg/kg/day
- TD50 (mouse, strain C3H/HeN-MTV-/Nctr (MTV-), females, in feed, site: mammary gland, lesion: adenocarcinoma, type A, dosed 107 weeks, study length 107 weeks): 2.63 mg/kg/day
- TD50 (mouse, strain C3H/HeN-MTV-/Nctr (MTV-), females, in feed, site: mammary gland, lesion: adenocarcinoma, type A, dosed 123 weeks, study length 123 weeks): 4.39 mg/kg/day
- TD50 (mouse, strain C3H/HeN-MTV-/Nctr (MTV-), females, in feed, site: mammary gland, lesion: adenocarcinoma, type A, dosed 125 weeks, study length 125 weeks): 2.1 mg/kg/day
- TD50 (mouse, strain C3H/HeN-MTV-/Nctr (MTV-), females, in feed, site: mammary gland, lesion: adenocarcinoma, type B, dosed 107 weeks, study length 107 weeks): 0.0302 mg/kg/day
- TD50 (mouse, strain C3H/HeN-MTV-/Nctr (MTV-), females, in feed, site: mammary gland, lesion: adenocarcinoma, type B, dosed 112 weeks, study length 112 weeks): 0.0434 mg/kg/day
- TD50 (mouse, strain C3H/HeN-MTV-/Nctr (MTV-), females, in feed, site: mammary gland, lesion: adenocarcinoma, type B, dosed 123 weeks, study length 123 weeks): 0.118 mg/kg/day
- TD50 (mouse, strain C3H/HeN-MTV-/Nctr (MTV-), females, in feed, site: mammary gland, lesion: adenocarcinoma, type B, dosed 125 weeks, study length 125 weeks): 0.0956 mg/kg/day
- TD50 (mouse, strain C3H/HeN-MTV-/Nctr (MTV-), females, in feed, site: mammary gland, lesion: several types, types named in the paper, dosed 107 weeks, study length 107 weeks): 0.0247 mg/kg/day
- TD50 (mouse, strain C3H/HeN-MTV-/Nctr (MTV-), females, in feed, site: mammary gland, lesion: several types, types named in the paper, dosed 112 weeks, study length 112 weeks): 0.0427 mg/kg/day
- TD50 (mouse, strain C3H/HeN-MTV-/Nctr (MTV-), females, in feed, site: mammary gland, lesion: several types, types named in the paper, dosed 123 weeks, study length 123 weeks): 0.115 mg/kg/day
- TD50 (mouse, strain C3H/HeN-MTV-/Nctr (MTV-), females, in feed, site: mammary gland, lesion: several types, types named in the paper, dosed 125 weeks, study length 125 weeks): 0.0872 mg/kg/day
- TD50 (mouse, strain C3H/HeN-MTV-/Nctr (MTV-), females, in feed, site: uterus, lesion: endometrial adenocarcinoma, dosed 112 weeks, study length 112 weeks): 2.05 mg/kg/day
- TD50 (mouse, strain C3H/HeN-MTV-/Nctr (MTV-), females, in feed, site: uterus, lesion: endometrial adenocarcinoma, dosed 123 weeks, study length 123 weeks): 1.87 mg/kg/day
- TD50 (mouse, strain C3H/HeN-MTV-/Nctr (MTV-), females, in feed, site: uterus, lesion: endometrial adenocarcinoma, dosed 125 weeks, study length 125 weeks): 1.71 mg/kg/day
- TD50 (mouse, strain C3HeB/FeJ, females, in feed, site: mammary gland, lesion: adenocarcinoma, dosed 78 weeks, study length 78 weeks): 0.295 mg/kg/day
- TD50 (mouse, strain C3HeB/FeJ, females, in feed, site: ovary, lesion: tubular adenoma, dosed 78 weeks, study length 78 weeks): 0.329 mg/kg/day
- TD50 (mouse, strain C3HeB/FeJ, females, in feed, site: ovary, lesion: tubular adenoma, dosed 104 weeks, study length 104 weeks): 0.597 mg/kg/day
- TD50 (mouse, strain C57BL/6, females, in feed, site: pituitary gland, lesion: adenoma, dosed 118 weeks, study length 143 weeks): 0.0259 mg/kg/day
- carcinogen call (mouse, strain C57BL/6, females, in feed, site: thyroid gland, lesion: follicular-cell tumor, dosed 118 weeks, study length 143 weeks): positive
- TD50 (mouse, strain C57BL/6, males, in feed, site: pituitary gland, lesion: adenocarcinoma, dosed 125 weeks, study length 153 weeks): 1.42 mg/kg/day
- TD50 (mouse, strain C57BL/6, males, in feed, site: pituitary gland, lesion: adenoma, dosed 125 weeks, study length 153 weeks): 0.0176 mg/kg/day
- TD50 (mouse, strain C57BL/6, males, in feed, site: testis, lesion: interstitial-cell tumor, dosed 125 weeks, study length 153 weeks): 0.257 mg/kg/day
- TD50 (mouse, strain C57BL/6, males, in feed, site: thyroid gland, lesion: follicular-cell tumor, dosed 125 weeks, study length 153 weeks): 0.05 mg/kg/day
- TD50 (mouse, strain Monohybrid cross offspring of B6CF1 (C57BL/6 x BALB/c), females, in feed, site: cervix, lesion: squamous-cell carcinoma, dosed 144 weeks, study length 153 weeks): 1.03 mg/kg/day
- TD50 (mouse, strain Monohybrid cross offspring of B6CF1 (C57BL/6 x BALB/c), females, in feed, site: ovary, lesion: granulosa-cell tumor, dosed 144 weeks, study length 153 weeks): 1.74 mg/kg/day
- TD50 (mouse, strain Monohybrid cross offspring of B6CF1 (C57BL/6 x BALB/c), females, in feed, site: pituitary gland, lesion: adenocarcinoma, dosed 144 weeks, study length 153 weeks): 17 mg/kg/day
- TD50 (mouse, strain Monohybrid cross offspring of B6CF1 (C57BL/6 x BALB/c), females, in feed, site: pituitary gland, lesion: adenoma, dosed 144 weeks, study length 153 weeks): 0.0456 mg/kg/day
- TD50 (mouse, strain Monohybrid cross offspring of B6CF1 (C57BL/6 x BALB/c), females, in feed, site: thyroid gland, lesion: follicular-cell adenoma, dosed 144 weeks, study length 153 weeks): 0.186 mg/kg/day
- TD50 (mouse, strain Monohybrid cross offspring of B6CF1 (C57BL/6 x BALB/c), females, in feed, site: uterus, lesion: mesothelioma, dosed 144 weeks, study length 153 weeks): 1.72 mg/kg/day
- TD50 (mouse, strain Monohybrid cross offspring of B6CF1 (C57BL/6 x BALB/c), males, in feed, site: pituitary gland, lesion: adenocarcinoma, dosed 147 weeks, study length 158 weeks): 4.36 mg/kg/day
- TD50 (mouse, strain Monohybrid cross offspring of B6CF1 (C57BL/6 x BALB/c), males, in feed, site: pituitary gland, lesion: adenoma, dosed 147 weeks, study length 158 weeks): 0.0794 mg/kg/day
- TD50 (mouse, strain Monohybrid cross offspring of B6CF1 (C57BL/6 x BALB/c), males, in feed, site: testis, lesion: interstitial-cell tumor, dosed 147 weeks, study length 158 weeks): 0.0661 mg/kg/day
- TD50 (rat, strain Charles River CD (Sprague-Dawley), females, in feed, site: liver, lesion: hepatoma, dosed 91 weeks, study length 104 weeks): 0.13 mg/kg/day (inactive)
- TD50 (rat, strain Charles River CD (Sprague-Dawley), males, in feed, site: adrenal gland, lesion: cortical adenoma, dosed 66 weeks, study length 66 weeks): 0.39 mg/kg/day
- TD50 (rat, strain Charles River CD (Sprague-Dawley), males, in feed, site: liver, lesion: carcinoma, dosed 66 weeks, study length 66 weeks): 1.21 mg/kg/day
- TD50 (rat, strain Charles River CD (Sprague-Dawley), males, in feed, site: liver, lesion: nodular hyperplasia, dosed 66 weeks, study length 66 weeks): 0.39 mg/kg/day
- carcinogen call (rat, strain Charles River CD (Sprague-Dawley), males, in feed, site: liver, lesion: one or several types, types not named, dosed 91 weeks, study length 104 weeks): negative (inactive)
- TD50 (rat, strain Charles River CD (Sprague-Dawley), males, in feed, site: pituitary gland, lesion: chromophobe adenoma, dosed 66 weeks, study length 66 weeks): 0.114 mg/kg/day
- TD50 (rat, strain Sprague-Dawley, females, by gavage, site: liver, lesion: hepatocellular adenoma, dosed 52 weeks, study length 52 weeks): 16.3 mg/kg/day
- TD50 (rat, strain Sprague-Dawley, females, by gavage, site: liver, lesion: hepatocellular carcinoma, dosed 52 weeks, study length 52 weeks): 4.8 mg/kg/day
- TD50 (rat, strain Sprague-Dawley, females, by gavage, site: pituitary gland, lesion: adenoma, dosed 52 weeks, study length 52 weeks): 7.68 mg/kg/day

From PubChem BioAssay AID1745844 (Carcinogenic Potency Database (CPDB), 2022)
